Results as given in patent US8591892B2, “FTY720 increases CD74 expression and sensitizes cancer cells to anti-CD74 antibody-mediated cell death” (The Ohio State University, priority 2011, dated 2013).

Assays:
[1] = tested on: primary tumor cells from MCL patients; assay: Cell viability by annexin-V/PI staining and flow cytometry; assay type: cell-based, human; settings: six MCL patients, 24 hours; FTY720 2.5 μM, immobilized milatuzumab 5 μg/ml
Protocol: FIG. 4. FTY720 sensitizes MCL cell lines and primary patient tumor cells to milatuzumab-mediated cytotoxicity. (A) Four MCL cell lines and primary cells from 6 patients were treated with FTY720 and/or milatuzumab plus cross-linking antibodies at the indicated concentrations. (B) Patient characteristics. (C) Individual patient responses. (D) Representative histograms summarizing patient responses. Cell death was determined by annexin V/PI staining and flow cytometry at 24 hours. Data are shown as the percentage of annexin V−/PI− cells (live cells) and are normalized to untreated controls.
Primary tumor cells were isolated from the peripheral blood/lymph nodes of patients with MCL. All patients studied were diagnosed with MCL according to the World Health Organization (WHO) classification of tumors (Swerdlow, 2008, World Health Organization Classification of Tumours of Haematopoetic and Lymphoid Tissues (ed 4th ed.) Lyon, France, International Agency on Research for Cancer). All samples contained at least 85% of CD19^+/CD20^+ B cells detected by flow cytometry. […]
To assess lysosomal volume, FTY720 treated cells were incubated with LYSOTRACKER™ green DND-26. […] Cell viability was measured at 24 hours by dual staining with annexin-V FITC and propidium iodide (PI). A total of 10,000 events were collected and analyzed using WinMDI. […]

[2] = tested on: Jeko cells engrafted in SCID mice; assay: Preclinical model of human MCL in SCID mice, survival; assay type: in vivo, mouse; settings: n=10/group, from day 15; FTY720 5 mg/kg i.p. daily 2 weeks; antibodies 15 mg/kg i.p. every three days
Protocol: Evaluation of in vivo therapeutic activity of FTY720 and milatuzumab in the preclinical MCL model. SCID mice were injected i.v. with 40×10^6 JeKo cells and observed daily for signs of tumor burden.
Six to eight-week old female SCID mice (cb17 scid/scid) were purchased from Taconic Farms (Hudson, N.Y.) and maintained in pathogen-free, isolation cages. All animals were depleted of murine NK cells with intra-peritoneal (i.p.) injections of 0.2 mg of rat anti-mouse interleukin-2 receptor β monoclonal antibody (TMβ1) 1 day prior to engraftment with human tumor cell lines and then every week. Forty-eight hours post intravenous injection of 40×10^6 Jeko cells via tail vein, 50 mice were randomly distributed into 10 cages. Animals in groups of ten were treated starting at day 15 after engraftment. […] The third group was treated with FTY720 (5 mg/kg) every day for 2 weeks via i.p. The fourth group received milatuzumab (15 mg/kg) every three days, via i.p. injection. The fifth group received the combination of FTY720 and milatuzumab. Animals were monitored daily for signs of tumor burden, including hind limb paralysis, respiratory distress, weight loss, ruffled coat, and distended abdomen. Body weight was measured weekly for the first 3 weeks and then daily. […]

Jeko-1 = settings: Jeko-1, single agent, previous dose titration; read-out: LC50 (the source's name); cited from earlier work
Mino = settings: single agent, previous dose titration, read-out: LC50 (the source's name); cited from earlier work
UPN-1 = settings: UPN-1, single agent, previous dose titration; read-out: LC50 (the source's name); cited from earlier work
Z-138 = settings: Z-138, single agent, previous dose titration; read-out: LC50 (the source's name); cited from earlier work
[3] = rat, 4 mg/kg single IV dose; cited from earlier work
[4] = single agents, same dosage and delivery schedule; cited from earlier work
[5] = in subjects; cited from earlier work
[6] = tested on: CD74 in 3 human AML cell lines; assay: Flow cytometry of CD74 with/without permeabilization and IFN-γ; assay type: cell-based; settings: 3 AML lines, IFN-γ 40 and 200 U/mL
Protocol: CD74 expression in bone marrow biopsy (BMB) specimens from non-M3 AML patients was evaluated by immunohistochemistry and, for 3 human AML cell lines, by flow cytometry, with/without permeabilization and with/without IFN-γ (40 and 200 U/mL). These cell lines were also tested in proliferation assays for responses to milatuzumab, with/without IFN-γ. In 13/14 BMB specimens, there was moderate to strong CD74 expression by leukemic blasts, which was mostly intracellular, usually with a perinuclear distribution (data not shown). […] IFN-γ induced intracellular CD74 in all 3 lines (from 85%-868%) (not shown).

[7] = tested on: HLA-DR and CD74 in cancer cell lines; assay: Flow cytometry of antigen expression after IFN-γ, summary over the panel; assay type: cell-based; settings: two-day incubation with IFN-γ, Tables 4 and 5
Protocol: We examined whether the ability of anti-CD74 MAbs to kill cancer cells can be increased by using IFN-γ as an inducer of antigen expression. Using a panel of diverse cancer cell lines (including NHL, MM, GBM, and pancreatic and colonic carcinomas), we examined IFN-γ-induced changes in surface and cytoplasmic CD74 expression. Sensitivity of the malignant cells to milatuzumab was assessed with and without IFN-γ by cytotoxicity assays.
Expression of CD74, HLA-DR, and carcinoembryonic antigen (CEACAM5) was determined in untreated cells and cells exposed to 200 U of IFN-γ for 48 h by flow cytometry. Cells were stained with directly labeled MAbs in comparison to a directly labeled human IgG control. Antibodies were labeled using ALEXA FLUOR® 488 (Invitrogen, Carlsbad, Calif.). For determination of cytoplasmic antigen expression, cells were permeabilized prior to staining using the BD CYTOFIX/CYTOPERM™ kit (BD Biosciences, San Jose, Calif.).
Two-day incubation with IFN-γ increased surface and cytoplasmic expression of CD74 and HLA-DR (Table 4, Table 5). In all 4 colon cancer lines, IFN-γ increased cytoplasmic expression of both antigens, and surface expression of HLA-DR in ¾ and CD74 in 2/4 (Table 4, Table 5). Upregulation of HLA-DR and CD74 ranged from 23-3700% (Table 4, Table 5).

CCCCCCCCc1ccc(CCC(N)(CO)CO)cc1 [FTY720, fingolimod]
average cell death [1]: 47% | median survival [2]: 31 days | CC50 (Jeko-1): 12.5 µM | CC50 (Mino): 7.5 µM | CC50 (UPN-1): 7.5 µM | CC50 (Z-138): 7.5 µM | maximum plasma concentration [3]: 3.5 µM | weight loss or other side effects [4]: did not cause any observed weight loss or other significant side effects

veltuzumab: humanized IgG1 antibody against CD20
immunogenicity [5]: less immunogenic in subjects than rituximab

B1: IFN-γ: interferon-γ, agent inducing CD74 expression (protein, UniProt P01579 24-161, looked up)
Interferon gamma: QDPYVKEAENLKKYFNAGHSDVADNGTLFLGILKNWKEESDRKIMQSQIVSFYFKLFKNFKDDQSIQKSVETIKEDMNVKFFNSNKKKRDDFEKLTNYSVTDLNVQRKAIHELIQVMAELSPAAKTGKRKRSQMLFRG
upregulation of surface CD74 [6]: 69-117% | upregulation of HLA-DR and CD74 [7]: 23-3700%
